Patent publication US20220264878A1, “HERBICIDAL COMPOSITION CONTAINING R-TYPE PYRIDYLOXY CARBOXYLIC ACID DERIVATIVE AND USE THEREOF” (Qingdao Kingagroot Chemical Compound Co., Ltd., priority 2019, published 2022)
Where two headings read alike, the source gives them in different places.

Tests used:
Echinochloa oryzoides = assay: Post-emergence foliage spray, pot culture, fresh weight inhibition (Tables 1-48, 51-98, 101-148; 24 days); format: in vivo
Experimental: (§1) The above weeds were cultivated by a pot culture method. […] Full and uniform weed seeds were selected, soaked in warm water at 25° C. for 6 hours, and germinated in a 28° C. biochemical incubator (darkness). The weed seeds that had just germinatedwere evenly placed on the surface of the soil and then covered with 0.5-1 cm soil according to the sizes of seeds.
(§2) The technical materials were all dissolved in acetone, and diluted with an aqueous solution containing 0.1% emulsifier Tween-80. The dilution is performed as required.
(§3) A ratio of the active ingredient A to the active ingredient B and amounts thereof in each group depends on the characteristics and toxicity of the two agents, as well as the main application purpose of a corresponding formulation. Based on the pre-tests in this study, the dosage of the active ingredient A and B applied alone and in combination were shown in the tables. Water containing the solvent and emulsifier same with the above groups but free of the agents was used as a blank control.
(§4) In the stage of weeds with 3˜4 leaves, the weeds were thinned out to maintain 15 weeds per pot and 45 weeds for each treatment, then continued to be cultured to 5˜6 leaves stage of grassy weeds, 6˜7 leaves stage of broadleaf weeds, and treated.
(§5) The well-cultured weeds were evenly placed on a platform with an area of 0.5 m^2, and a solution of agents was sprayed on the stems and leaves thereof by the 3WP-2000-type walking spray tower at a dosage of 450 kg/ha and at a spray pressure of 0.3 MPa. After all the solution was sprayed, the valve was closed. After 30 seconds, the door of the spray tower was opened, and the nutritional bowl was taken out. Then the valve was opened, and the spray tube was cleaned by spraying 50 ml of water.
(§6) A pot-culture method was employed. For the cultivation of weeds, please refer to the Section 1.1), and “Pesticide guidelines for laboratory bioactivity tests—herbicides”. As to a method for applying agents, please refer to the section 2.3.2), that is, a foliage treatment was employed. After the treatment, the weeds were routinely cultured in a greenhouse.
(§7) A method for investigating absolute number was employed, wherein whole seedlings of survival weeds were cut off with a blade along the soil surface, and the fresh weight of the weeds was weighed with an analytical balance. For dead weeds, the fresh weight thereof was zero.
(§8) Wherein, in the formula, X represented the fresh weight inhibition rate of the active ingredient A in a dosage of P, and Y represented the fresh weight inhibition rate of the active ingredient B in a dosage of Q.

Echinochloa caudate = assay: as above; format: in vivo; details: for Control effect (%) of B applied alone in corresponding dose: Table 86
Experimental: as §1, §2, §3, §4, §5, §6, §7, §8

[1] = Echinochloa oryzoides, 576 h, read-out: Control effect (%) of B applied alone in corresponding dose
[2] = Echinochloa, 576 h, read-out: Control effect (%) of B applied alone in corresponding dose

In the case of `CCNc1nc(Cl)nc(NC(C)C)n1` [atrazine], the pest or weed control at 75 g/ha (Echinochloa oryzoides; Echinochloa oryzoides, 576 h, B 75 g a.i./ha, read-out: Control effect (%) of B applied alone in corresponding dose) is reported as 6.7%, the pest or weed control at 150 g/ha (Echinochloa oryzoides; Echinochloa oryzoides, 576 h, B 150 g a.i./ha, read-out: Control effect (%) of B applied alone in corresponding dose) is reported as 21.7% and the pest or weed control at 300 g/ha (Echinochloa oryzoides; Echinochloa oryzoides, 576 h, B 300 g a.i./ha, read-out: Control effect (%) of B applied alone in corresponding dose) is reported as 26.4%. It also gave a pest or weed control at 600 g/ha (Echinochloa oryzoides; Echinochloa oryzoides, 576 h, B 600 g a.i./ha, read-out: Control effect (%) of B applied alone in corresponding dose) of 61.8%, a pest or weed control at 75 g/ha (Echinochloa caudate; Echinochloa, 576 h, atrazine 75 g a.i./ha, read-out: Control effect (%) of B applied alone in corresponding dose) of 3.8% and a pest or weed control at 150 g/ha (Echinochloa caudate; Echinochloa, 576 h, atrazine 150 g a.i./ha, read-out: Control effect (%) of B applied alone in corresponding dose) of 13.5%. For the same compound, the pest or weed control at 300 g/ha (Echinochloa caudate; Echinochloa, 576 h, atrazine 300 g a.i./ha, read-out: Control effect (%) of B applied alone in corresponding dose) was 24.8% and the pest or weed control at 600 g/ha (Echinochloa caudate; Echinochloa, 576 h, atrazine 600 g a.i./ha, read-out: Control effect (%) of B applied alone in corresponding dose) was 66.5%.
`CS(=O)(=O)c1ccc(C(=O)C2=C(Sc3ccccc3)C3CCC(C3)C2=O)c(Cl)c1` (stereo not drawn) [benzobicylon] was tested, and the “Control effect (%) of B applied alone in corresponding dose” value (from here on “Control effect (%) of B applied alone”) (Echinochloa oryzoides; B 37.5 g a.i./ha) was 9.3%, the “Control effect (%) of B applied alone” value (Echinochloa oryzoides; B 75 g a.i./ha) was 18.0% and the “Control effect (%) of B applied alone” value (Echinochloa oryzoides; B 150 g a.i./ha) was 46.6%. For the same compound, the “Control effect (%) of B applied alone” value (Echinochloa oryzoides; B 300 g a.i./ha) was 57.3%, the “Control effect (%) of B applied alone” value (Echinochloa caudate; 37.5 g a.i./ha) was 2.1% and the “Control effect (%) of B applied alone” value (Echinochloa caudate; 75 g a.i./ha) was 11.7%. The “Control effect (%) of B applied alone” value (Echinochloa caudate; 150 g a.i./ha) was 43.3% and the “Control effect (%) of B applied alone” value (Echinochloa caudate; 300 g a.i./ha) was 54.4%.
`CCSC(C)CC1CC(=O)C(/C(CC)=N/OC/C=C/Cl)=C(O)C1` (stereo not drawn) [clethodim] gave a pest or weed control at 7.5 g/ha (Echinochloa oryzoides; [1]) of 6.7%, a pest or weed control at 15 g/ha (Echinochloa oryzoides; [1]) of 19% and a pest or weed control at 30 g/ha (Echinochloa oryzoides; [1]) of 37.8%. The pest or weed control at 60 g/ha (Echinochloa oryzoides; [1]) was 62.7%, the pest or weed control at 7.5 g/ha (Echinochloa caudate; [2]) was 3.4% and the pest or weed control at 15 g/ha (Echinochloa caudate; [2]) was 27%. The pest or weed control at 30 g/ha (Echinochloa caudate; [2]) was 43.8% and the pest or weed control at 60 g/ha (Echinochloa caudate; [2]) was 67.4%.
`CC1(C)CON(Cc2ccccc2Cl)C1=O` [clomazone] was tested, and the pest or weed control at 45 g/ha (Echinochloa oryzoides; Echinochloa oryzoides, 576 h, B 45 g a.i./ha, read-out: Control effect (%) of B applied alone in corresponding dose) was 8.6%, the pest or weed control at 90 g/ha (Echinochloa oryzoides; Echinochloa oryzoides, 576 h, B 90 g a.i./ha, read-out: Control effect (%) of B applied alone in corresponding dose) was 12.9% and the pest or weed control at 180 g/ha (Echinochloa oryzoides; Echinochloa oryzoides, 576 h, B 180 g a.i./ha, read-out: Control effect (%) of B applied alone in corresponding dose) was 50.9%. It also gave a pest or weed control at 360 g/ha (Echinochloa oryzoides; Echinochloa oryzoides, 576 h, B 360 g a.i./ha, read-out: Control effect (%) of B applied alone in corresponding dose) of 72.1%, a pest or weed control at 45 g/ha (Echinochloa caudate; Echinochloa, 576 h, Table 89, 45 g a.i./ha, read-out: Control effect (%) of B applied alone in corresponding dose) of 8.6% and a pest or weed control at 90 g/ha (Echinochloa caudate; Echinochloa, 576 h, Table 89, 90 g a.i./ha, read-out: Control effect (%) of B applied alone in corresponding dose) of 19%. The pest or weed control at 180 g/ha (Echinochloa caudate; Echinochloa, 576 h, Table 89, 180 g a.i./ha, read-out: Control effect (%) of B applied alone in corresponding dose) was 47.7% and the pest or weed control at 360 g/ha (Echinochloa caudate; Echinochloa, 576 h, Table 89, 360 g a.i./ha, read-out: Control effect (%) of B applied alone in corresponding dose) was 70.1%.
`CCCCOC(=O)[C@@H](C)Oc1ccc(Oc2ccc(C#N)cc2F)cc1` [cyhalofop-butyl] gave a pest or weed control at 9.375 g/ha (Echinochloa oryzoides; [1]) of 5.5%, a pest or weed control at 18.75 g/ha (Echinochloa oryzoides; [1]) of 15% and a pest or weed control at 37.5 g/ha (Echinochloa oryzoides; [1]) of 32.1%. It also gave a pest or weed control at 75 g/ha (Echinochloa oryzoides; [1]) of 63.5%, a pest or weed control at 9.375 g/ha (Echinochloa caudate; [2]) of 5.9% and a pest or weed control at 18.75 g/ha (Echinochloa caudate; [2]) of 11.4%. For the same compound, the pest or weed control at 37.5 g/ha (Echinochloa caudate; [2]) was 29.9% and the pest or weed control at 75 g/ha (Echinochloa caudate; [2]) was 69.6%.
With `CN(C)C(=O)Nc1ccc(Cl)c(Cl)c1` [diuron] the pest or weed control at 75 g/ha (Echinochloa oryzoides; [1]) was 4.1%, the pest or weed control at 150 g/ha (Echinochloa oryzoides; [1]) was 14% and the pest or weed control at 300 g/ha (Echinochloa oryzoides; [1]) was 31.3%. The pest or weed control at 600 g/ha (Echinochloa oryzoides; [1]) was 56.2%, the pest or weed control at 75 g/ha (Echinochloa caudate; [2]) was 3% and the pest or weed control at 150 g/ha (Echinochloa caudate; [2]) was 16.5%. For the same compound, the pest or weed control at 300 g/ha (Echinochloa caudate; [2]) was 28.6% and the pest or weed control at 600 g/ha (Echinochloa caudate; [2]) was 52.2%.
